Data: US4997829A, “Penem compounds, and use thereof” (Suntory Limited, priority 1985, dated 1991)
Like-named read-outs stand apart in the source and are kept apart here.

Columns and labels:
S. aureus Smith [1] = assay: Therapeutic effect against experimental infection in mice (ED50); type: in vivo, S. aureus; ICR strain male mice; conditions: Staphylococcus aureus, po, 144 h, survival after 6 days, Probit method, read-out: ED50
Procedure: (§1) Out of the novel compound obtained according to this invention, SUN 4435 was selected to carry out a treatment experiment with infected animals. As an animal, there were employed ICR strain male mice (5-weeks aged, with an average body weight of 29.1 g), which were infected intraperitoneally with a test microorganism, S. aureus Smith or E. coli KC-14, and 24 hours later, treated by subcutaneous or oral application of SUN 4435 or SUN 5555. ED50 values were determined from the survival rates found after 6 days in accordance with the Probit method.

S. aureus Smith [2] = assay: Therapeutic effect against experimental infection of mice (survival); type: in vivo, S. aureus; ICR strain male mice
Procedure: (§2) Out of the novel compounds obtained according to this invention, SUN 4435 was selected to carry out a treatment experiment with infected animals. As an animal, there were employed ICR strain male mice (5-weeks aged, with a body weight of 23 to 27 g), which were inoculated intraperitoneally with S. aureus Smith or E. coli KC-14 and 2 hours later, treated by subcutaneous or oral application of SUN 4435.

E. coli NIHI JC-2 = assay: Minimum inhibitory concentration (MIC), agar plate dilution method; type: cell-based; conditions: Escherichia coli, NIHIJC2; 10^6 CFU inoculated, 37° C., 18 hours
Procedure: (§3) With regard to the novel compounds obtained according to this invention and the compounds of Reference Examples, their minimum inhibitory concentrations (MIC) were determined by the agar plate dilution method in accordance with the MIC measuring standard method of The Chemotherapeutic Society of Japan, whereby 10^6 colony forming units were inoculated and the minimal concentration to inhibit the microbial growth after inclubation at 37° C. for 18 hours were determined, as shown as μg/ml in Table.

E. coli W3630/Rms213 = assay: as above; type: cell-based; conditions: Escherichia coli, W3630/RMS213, 18 h, read-out: minimum inhibitory concentration (MIC)
Procedure: as §3

Pr. morganii IFO3848 = assay: as above; type: cell-based; conditions: Morganella morganii, IFO3848; 10^6 CFU inoculated, 37° C., 18 hours
Procedure: as §3

E. coli W3630/Rms212 = assay: as above; type: cell-based; conditions: Escherichia coli, W3630/RMS212, 18 h, read-out: minimum inhibitory concentration (MIC)
Procedure: as §3

Ent. cloacae 963 = assay: as above; type: cell-based; conditions: Enterobacter cloacae, 963; 10^6 CFU inoculated, 37° C., 18 hours
Procedure: as §3

Pr. vulgaris GN7919 = assay: as above; type: cell-based; conditions: Proteus vulgaris, GN7919; 10^6 CFU inoculated, 37° C., 18 hours
Procedure: as §3

Ser. marcescens IMA 1136 = assay: as above; type: cell-based; conditions: Serratia marcescens, IMA1136; 10^6 CFU inoculated, 37° C., 18 hours
Procedure: as §3

K. pneumoniae PC1602 = assay: as above; type: cell-based; conditions: Klebsiella pneumoniae, PC1602; 10^6 CFU inoculated, 37° C., 18 hours
Procedure: as §3

Al. fecalis IFO13111 = assay: as above; type: cell-based; conditions: 10^6 CFU inoculated, 37° C., 18 hours
Procedure: as §3

B. fragilis V-280-1 = assay: as above; type: cell-based; conditions: Bacteroides fragilis, V2801; 10^6 CFU inoculated, 37° C., 18 hours
Procedure: as §3

B. fragilis GM7000 = assay: as above; type: cell-based; conditions: Bacteroides fragilis, GM7000; 10^6 CFU inoculated, 37° C., 18 hours
Procedure: as §3

M. luteus ATCC9341 = assay: as above; type: cell-based; conditions: Micrococcus luteus, ATCC9341; 10^6 CFU inoculated, 37° C., 18 hours
Procedure: as §3

F. varium ATCC8501 = assay: as above; type: cell-based; conditions: Fusobacterium varium, ATCC8501; 10^6 CFU inoculated, 37° C., 18 hours
Procedure: as §3

S. aureus FAD209P JC-1 = assay: as above; type: cell-based; conditions: Staphylococcus aureus, FAD209PJC1; 10^6 CFU inoculated, 37° C., 18 hours
Procedure: as §3

E. coli KC-14 [3] = assay: Therapeutic effect against experimental infection of mice (survival); type: in vivo, E. coli; ICR strain male mice
Procedure: as §2

Acute toxicity test = type: in vivo; conditions: mouse, in vivo, iv, route not restated (follows intravenous paragraph), read-out: 50% lethal dose (LD50)
Procedure: Out of the novel compounds obtained according to this invention, SUN 4435 and SUN 5555 were selected to carry out an acute toxicity test. As an animal, there were employed ICR strain mice (4-weeks aged), which were treated by oral and intravenous application of the compounds.

E. coli KC-14 [4] = assay: Therapeutic effect against experimental infection in mice (ED50); type: in vivo, E. coli; ICR strain male mice; conditions: Escherichia coli, 144 h, survival after 6 days, Probit method, read-out: ED50
Procedure: as §1

SMILES	MIC (E. coli NIHI JC-2) [µg/mL]	MIC (E. coli W3630/Rms213) [µg/mL]	MIC (Pr. morganii IFO3848) [µg/mL]	MIC (E. coli W3630/Rms212) [µg/mL]	MIC (Ent. cloacae 963) [µg/mL]	MIC (Pr. vulgaris GN7919) [µg/mL]	MIC (Ser. marcescens IMA 1136) [µg/mL]	MIC (K. pneumoniae PC1602) [µg/mL]	MIC (Al. fecalis IFO13111) [µg/mL]	MIC (B. fragilis V-280-1) [µg/mL]	MIC (B. fragilis GM7000) [µg/mL]	MIC (M. luteus ATCC9341) [µg/mL]	MIC (F. varium ATCC8501) [µg/mL]	MIC (S. aureus FAD209P JC-1) [µg/mL]	further results
C[C@@H](O)[C@H]1C(=O)N2C(C(=O)O)=C([C@H]3CCCO3)S[C@H]12 [SUN 4435, Potassium (1'R, 2"R, 5R, 6S)-6-(1'-hydroxyethyl)-2-(2"-tetrahydrofuranyl)penem-3-carboxylate]	0.78	0.78	6.25	1.56	3.13	0.39	3.13	0.1	0.78	0.2	< 0.025	0.05	0.2	0.05	ED50 (S. aureus Smith [1]): 5.9 mg/kg; survival (S. aureus Smith [2]; oral, 3.9 mg/kg, 3.6×10^5 CFU/head): three heads out of five survived; survival (S. aureus Smith [2]; oral, 9.6 mg/kg or more, 3.6×10^5 CFU/head): every heads were found to survive; survival (S. aureus Smith [2]; subcutaneous, 1.6 mg/kg or more, 5.7×10^5 CFU): every heads were found to survive; survival (E. coli KC-14 [3]; oral, 12.5 mg/kg or more, 1.5×10^5 CFU/head): every heads were found to survive; survival (E. coli KC-14 [3]; subcutaneous, 1.5 mg/kg, 3.1×10^5 CFU): three mice per five survived; survival (E. coli KC-14 [3]; subcutaneous, 2.6 mg/kg or more, 3.1×10^5 CFU): every heads were found to survive; LD50 (Acute toxicity test; female mice): 456 mg/kg; LD50 (Acute toxicity test; male mice): 480 mg/kg; ED50 (E. coli KC-14 [4]; KC14, po, oral): 11 mg/kg; ED50 (E. coli KC-14 [4]; KC14, sc, subcutaneous): 1.5 mg/kg
C[C@@H](O)[C@H]1C(=O)N2C(C(=O)O)=C([C@@H]3CCOC3)S[C@H]12 [SUN 4726, Potassium (1'R, 3"R, 5R, 6S)-6-(1'-hydroxyethyl)-2-(3"-tetrahydrofuranyl)penem-3-carboxylate]	1.56	1.56	12.5	3.13	6.25	1.56	12.5	0.05	1.56	0.05	0.05	0.05	0.1	0.05	
C[C@@H](O)[C@H]1C(=O)N2C(C(=O)O)=C([C@@H]3CCCCO3)S[C@H]12 [SUN 4740, Potassium (1'R, 2"S, 5R, 6S)-6-(1'-hydroxyethyl)-2-(2"-tetrahydropyranyl)penem-3-carboxylate]	> 50	> 50	25	> 50	> 50	1.25	> 50	3.13	6.25	0.78	0.78	0.05	6.25	0.1	
C[C@@H](O)[C@H]1C(=O)N2C(C(=O)O)=C([C@H]3CCCCO3)S[C@H]12 [SUN 4741, Potassium (1'R, 2"R, 5R, 6S)-6-(1'-hydroxyethyl)-2-(2"-tetrahydropyranyl)penem-3-carboxylate]	6.25	6.25	3.13	12.5	25	3.13	25	0.1	0.78	0.1	0.1	0.1	0.39	0.1	
C[C@@H](O)[C@H]1C(=O)N2C(C(=O)O)=C([C@@H]3COCCO3)S[C@H]12 [SUN 4770, Potassium (1'R, 2"S, 5R, 6S)-6-(1'-hydroxyethyl)-2-(2"-para-dioxanyl)penem-3-carboxylate]	1.56	12.5	25	12.5	25	6.25	50	0.78	6.25	0.39	0.39	0.1	3.13	0.2	
C[C@@H](O)[C@H]1C(=O)N2C(C(=O)O)=C([C@H]3COCCO3)S[C@H]12 [SUN 4771, Potassium (1'R, 2"R, 5R, 6S)-6-(1'-hydroxyethyl)-2-(2"-para-dioxanyl)penem-3-carboxylate]	1.56	0.73	6.25	1.56	3.13	0.78	6.25	0.05	0.78	0.05	0.025	0.1	0.78	0.05	
